Reference: patent publication US10858357B2, “Water-soluble myosin 2 inhibitors for the treatment of neurological, neuropathic or psychiatric diseases” (PARIS SCIENCES ET LETTRES-QUARTIER LATIN, priority 2016, dated 2020)

Experiments:
[1] = system: zebrafish skeletal muscle; experiment: Zebrafish fast escape response (C-start), maximal angular velocity; assay type: in vivo, zebrafish (Danio rerio); conditions: 6 dpf zebrafish
Procedure: (§1) For the fast escape response experiments, 6 dpf larvae were placed in 50 μl drops on a plastic plate. They were treated with 0, 2, 5, 10 or 20 μM of neurelaxin-A. To evoke C-start response, acoustic stimuli were applied according to the following protocol: 10 taps were carried out with 1 minute intervals every hour for 4 hours. The force of tapping was standardized. Images were recorded with Ximea Camera (MQ003MG-CM) at 500 fps for 2 s. Data were analyzed by Flote software version 2.1 and maximal angular velocity parameters of C-start reflex were quantified. For the experiments investigating the effect of the inhibitor on the heart muscle of zebrafish, 6 dpf larvae were embedded in 1% agarose and kept in E3 in the presence of 20 μM neurelaxin-A. Videos were taken by a camera at 15.1 fps before and after inhibitor treatment every hour for 3 hours.
(§2) Transgenic Tg(−8.0cldnb:lynEGFP)^zf106 (cldnb:gfp) (Haas, P. & Gilmour, D., Developmental Cell 10, 2006, pp 673-680) zebrafish (Danio rerio) were maintained in the animal facility of Eötvös Loránd University. […]
The relative rate of in vivo skeletal muscle contraction was quantified based on the velocity of the rotating heads of the animals have been quantified (maximal angular velocity) in the absence and in the presence of neurelaxin-A (2 μM), monitored for 4 hours.

[2] = system: human melanoma (M2) cells; experiment: Inhibition of blebbing of M2 cells (blebbing index); assay type: cell-based
Procedure: For blebbing index determination, M2 cells were incubated for 30 minutes in PBS in every case prior to the addition of inhibitors, in order to initiate extensive blebbing. Blebbing of the cells was monitored before as well as after inhibitor addition to the cells. DMSO concentration was 0.1 vol/vol % in all experiments. Blebbing index was calculated by summing the initiated blebs in a 5-minute interval (starting at the indicated time points) on a given standard area 17 (whole cells with similar size, diameter=12±1 μm) and normalizing it to the blebbing index prior to inhibitor treatment.
As myosin 2 inhibition blocks blebbing of M2 cells (Straight et al., Science, 2003, 299 (5613), pp 1743-7), the blebbing indices ((Charras, G. T., Yarrow, J. C., Horton, M. A., Mahadevan, L. & Mitchison, T. J. Non-equilibration of hydrostatic pressure in blebbing cells. Nature 435, 365-369, doi:10.1038/nature03550 (2005))) of M2 cells were measured in time, after incubating the cells in neurelaxin-A at different concentrations (FIG. 3C).

[3] = system: embryonic rat hippocampal neurons; experiment: Cannabinoid (WIN55,212-2)-induced growth cone retraction; assay type: cell-based; conditions: 100 μM pre-treatment, WIN55,212-2 100 nM
Procedure: Embryonic rat hippocampal neurons were isolated from 18-day-old embryo and cultured on poly-D-lysine coated dish in Neurobasal medium complemented with B27, FBS and glutamax for 6 days and transfected by using Lipofectamine 2000 with DNA codig for LifeAct-mCherry and CB1R-CFP.
The growth of neurites were monitored by fluorescent miscroscopy after the addition of different pre-treatment doses of neurelaxin-A at 20 minutes, followed 20 minutes later by the addition of 100 nM of the synthetic cannabinoid WIN55,212-2 as described in Roland et al, 2014.

[4] = system: embryonic mouse hippocampal cells; experiment: Neurite growth in embryonic hippocampal cell culture; assay type: cell-based; conditions: 50 μM
Procedure: Embryonic mouse hippocampal cells were isolated from 17-day-old embryo and cultured on poly-D-lysine coated dish in neurobasal medium complemented with B27, FCS and glutamax for 20 hours.
The growth of neurites was monitored by phase contrast microscopy after the addition of 50 μM neurelaxin-A (Imaging buffer: Extracell isotonic salt solution, buffered with 5 mM HEPES).

[5] = system: Mauthner axon of zebrafish embryos; experiment: Mauthner axon regeneration after photoablation; assay type: in vivo; conditions: 3 dpf zebrafish embryos
Description: The Mauthner neuron is a giant neuron in the hindbrain of zebrafish embryos, which is a widely used model for studying regeneration. The Mauthner axon of 3 dpf zebrafish embryos was photoablated with two-photon irradiation at 800 nm.

[6] = system: zebrafish heart muscle; experiment: Zebrafish heart rate and amplitude of heart muscle contraction; assay type: in vivo, zebrafish (Danio rerio); conditions: 20 μM, within three hours, 6 dpf zebrafish
Procedure: as §1
as §2, with “University. For the experiments investigating the skeletal and heart muscle of zebrafish, 6 dpf embryos were used.” for “University.”
Heart beating and the amplitude of heart muscle contraction were monitored before and after the addition of 20 μM of neurelaxin-A to the zebrafish, imaging the same embryos every hour for three hours.

[7] = Photostability under 480±10 nm irradiation; assay type: physicochemical; conditions: 5 μM, 480±10 nm for 0, 5, 10 and 15 minutes
Procedure: Fluorescence emission spectra (λexc=350 nm) were recorded in assay buffer containing 0.1% DMSO applying the inhibitors at 5 μM concentrations. The photoconversion measurements were carried out using 5 μM neurelaxin-A in assay buffer and irradiating the samples at 480±10 nm for 0, 5, 10 and 15 minutes using a Fluorescence Spectrometer (F900, Edinburgh Instruments) equipped with a 450 W Xenon Lamp. Their absorbance spectra were measured at each time point.
Neurelaxin-A's photostability was measured by irradiating the compound in assay buffer at 480±10 nm for 0, 5, 10 and 15 minutes and recorded the absorption spectra afterwards (FIG. 2C).

Cc1ccc2c(c1)C(=O)C1(O)CCN(c3ccc(N)cc3)C1=N2 (stereo not shown) [Neurelaxin-A, 1-(4-aminophenyl)-3a-hydroxy-6-methyl-3,3a-dihydro-1H-pyrrolo[2,3-b]quinolin-4(2H)-one]
time of half inhibition of maximal angular velocity ([1]; 2 μM): 3.2 h | EC50 ([1]; Danio rerio, C-start, monitored for 4 hours, read-out: EC50 for the inhibition of the maximal angular velocity): < 2000 nM | τ, time constant of suppression of blebbing index ([2]; 5 μM): 25.0 ± 4.3 min | effect on blebbing indices ([2]; 5 μM, within an hour): significant decrease | time within which blebbing completely stopped ([2]; 10 μM): 40 to 60 min | τ, time constant of suppression of blebbing index ([2]; 10 μM): 16.8 ± 1.6 min | time within which blebbing completely stopped ([2]; 25 μM): > 20 min | τ, time constant of suppression of blebbing index ([2]; 25 μM): 9.9 ± 0.3 min | time within which blebbing completely stopped ([2]; 50 μM): > 20 min | τ, time constant of suppression of blebbing index ([2]; 50 μM): 7.8 ± 0.3 min | cannabinoid-induced retraction of axonal growth cones [3]: significantly prevented | rate of neurite growth [4]: 1 μm/min | rate of neurite growth ([4]; listed as neurelaxin-A): approximately 1 μm/min | maximum rate of axon growth [5]: 0.6 um/min | time after treatment at which axon regrowth is induced [5]: 1 h | time of treatment at which maximum rate of growth is reached [5]: 2 h | start of axon regrowth post-ablation ([5]; spontaneous regrowth normally after 30 hours): 19 h | amplitude of heart muscle contraction [6]: dropped drastically | photostability: absorption spectrum after irradiation [7]: has not been altered
